# Results: the NIST ThermoML archive (doi:10.1021/je030136n)
# Numbers after ± are expanded uncertainties.
# Experiment: xn = mol fraction of the nth substance listed
# Conditions: Liquid, Pulse-echo method
compound,measurement,setting,value
CCCCCCC [heptane] + CCCO,speed of sound,"293.1 K, 45590 kPa, x2 = 0.6027",1414.5 ± 1.1 m/s
same,speed of sound,"293.1 K, 91190 kPa, x2 = 0.1008",1599 ± 1.3 m/s
same,speed of sound,"293.1 K, 91190 kPa, x2 = 0.3008",1594.3 ± 1.2 m/s
same,speed of sound,"293.1 K, 111450 kPa, x2 = 0",1674.3 ± 1.3 m/s
same,speed of sound,"293.11 K, 45590 kPa, x2 = 0.1008",1412 ± 1.2 m/s
same,speed of sound,"293.11 K, 121580 kPa, x2 = 0.7986",1691.8 ± 1.3 m/s
same,speed of sound,"293.12 K, 100 kPa, x2 = 0.4992",1158.2 ± 1.1 m/s
same,speed of sound,"293.12 K, 30400 kPa, x2 = 0.7986",1355.6 ± 1.1 m/s
same,speed of sound,"293.12 K, 45590 kPa, x2 = 0.7986",1424 ± 1.1 m/s
same,speed of sound,"293.12 K, 75990 kPa, x2 = 0.7986",1543.1 ± 1.2 m/s
same,speed of sound,"293.13 K, 100 kPa, x2 = 0.6027",1164.9 ± 1.1 m/s
same,speed of sound,"293.13 K, 30400 kPa, x2 = 0.6027",1343.3 ± 1.1 m/s
same,speed of sound,"293.13 K, 45590 kPa, x2 = 0.4992",1412.6 ± 1.1 m/s
same,speed of sound,"293.13 K, 60790 kPa, x2 = 0.7986",1486.1 ± 1.1 m/s
same,speed of sound,"293.13 K, 75990 kPa, x2 = 0.1008",1541.8 ± 1.2 m/s
same,speed of sound,"293.13 K, 121580 kPa, x2 = 0.1008",1701.6 ± 1.3 m/s
same,speed of sound,"293.14 K, 100 kPa, x2 = 0.7016",1173.8 ± 1 m/s
same,speed of sound,"293.14 K, 100 kPa, x2 = 0.7986",1185.8 ± 1 m/s
same,speed of sound,"293.14 K, 60790 kPa, x2 = 0.6027",1478.7 ± 1.2 m/s
same,speed of sound,"293.14 K, 91190 kPa, x2 = 0.6027",1592.5 ± 1.2 m/s
same,speed of sound,"293.14 K, 101320 kPa, x2 = 0.1008",1634.7 ± 1.3 m/s
same,speed of sound,"293.14 K, 111450 kPa, x2 = 0.3008",1663.3 ± 1.3 m/s
same,speed of sound,"293.14 K, 111450 kPa, x2 = 0.7986",1661.2 ± 1.2 m/s
same,speed of sound,"293.15 K, 100 kPa, x2 = 0",1151.7 ± 1.1 m/s
same,speed of sound,"293.15 K, 75990 kPa, x2 = 0.6027",1537.8 ± 1.2 m/s
same,speed of sound,"293.15 K, 111450 kPa, x2 = 0.1008",1668.9 ± 1.3 m/s
same,speed of sound,"293.16 K, 30400 kPa, x2 = 0.7016",1348.5 ± 1.1 m/s
same,speed of sound,"293.16 K, 60790 kPa, x2 = 0.4992",1478 ± 1.2 m/s
same,speed of sound,"293.16 K, 75990 kPa, x2 = 0.4992",1537.8 ± 1.2 m/s
same,speed of sound,"293.16 K, 91190 kPa, x2 = 0.7986",1595.9 ± 1.2 m/s
same,speed of sound,"293.16 K, 101320 kPa, x2 = 0.3008",1629.5 ± 1.3 m/s
same,speed of sound,"293.16 K, 111450 kPa, x2 = 0.6027",1659.8 ± 1.2 m/s
same,speed of sound,"293.16 K, 121580 kPa, x2 = 0",1707.1 ± 1.4 m/s
same,speed of sound,"293.16 K, 121580 kPa, x2 = 0.7016",1691 ± 1.3 m/s
same,speed of sound,"293.17 K, 30400 kPa, x2 = 0.4992",1340.5 ± 1.1 m/s
same,speed of sound,"293.17 K, 45590 kPa, x2 = 0.7016",1418.3 ± 1.1 m/s
same,speed of sound,"293.17 K, 101320 kPa, x2 = 0.7986",1629.2 ± 1.2 m/s
same,speed of sound,"293.17 K, 121580 kPa, x2 = 0.3008",1695.5 ± 1.3 m/s
same,speed of sound,"293.18 K, 30400 kPa, x2 = 0",1341.5 ± 1.2 m/s
same,speed of sound,"293.18 K, 60790 kPa, x2 = 0.7016",1481.6 ± 1.1 m/s
same,speed of sound,"293.18 K, 101320 kPa, x2 = 0.6027",1626.9 ± 1.2 m/s
same,speed of sound,"293.18 K, 111450 kPa, x2 = 0.7016",1659.9 ± 1.2 m/s
same,speed of sound,"293.18 K, 121580 kPa, x2 = 0.6027",1691.2 ± 1.3 m/s
same,speed of sound,"293.19 K, 45590 kPa, x2 = 0",1416.6 ± 1.2 m/s
same,speed of sound,"293.19 K, 60790 kPa, x2 = 0.1008",1479.6 ± 1.2 m/s
same,speed of sound,"293.19 K, 60790 kPa, x2 = 0.3008",1476.8 ± 1.2 m/s
same,speed of sound,"293.19 K, 91190 kPa, x2 = 0.4992",1592.6 ± 1.2 m/s
same,speed of sound,"293.19 K, 101320 kPa, x2 = 0.7016",1627.5 ± 1.2 m/s
same,speed of sound,"293.2 K, 15200 kPa, x2 = 0",1256.3 ± 1.1 m/s
same,speed of sound,"293.2 K, 60790 kPa, x2 = 0",1484.5 ± 1.2 m/s
same,speed of sound,"293.2 K, 75990 kPa, x2 = 0",1546.5 ± 1.3 m/s
same,speed of sound,"293.2 K, 75990 kPa, x2 = 0.3008",1537.7 ± 1.2 m/s
same,speed of sound,"293.2 K, 75990 kPa, x2 = 0.7016",1539.8 ± 1.2 m/s
same,speed of sound,"293.2 K, 91190 kPa, x2 = 0",1603.7 ± 1.3 m/s
same,speed of sound,"293.2 K, 91190 kPa, x2 = 0.7016",1593.7 ± 1.2 m/s
same,speed of sound,"293.2 K, 101320 kPa, x2 = 0",1639.7 ± 1.3 m/s
same,speed of sound,"293.21 K, 100 kPa, x2 = 0.3008",1149.9 ± 1.1 m/s
same,speed of sound,"293.21 K, 30400 kPa, x2 = 0.3008",1336.5 ± 1.1 m/s
same,speed of sound,"293.21 K, 101320 kPa, x2 = 0.4992",1627.3 ± 1.2 m/s
same,speed of sound,"293.21 K, 111450 kPa, x2 = 0.4992",1660.5 ± 1.3 m/s
same,speed of sound,"293.22 K, 100 kPa, x2 = 0.1008",1147.3 ± 1.1 m/s
same,speed of sound,"293.22 K, 15200 kPa, x2 = 0.1008",1252 ± 1.1 m/s
same,speed of sound,"293.22 K, 30400 kPa, x2 = 0.1008",1337 ± 1.1 m/s
same,speed of sound,"293.22 K, 45590 kPa, x2 = 0.3008",1410.2 ± 1.2 m/s
same,speed of sound,"293.23 K, 121580 kPa, x2 = 0.4992",1692.2 ± 1.3 m/s
same,speed of sound,"298.06 K, 121580 kPa, x2 = 0.6027",1679 ± 1.3 m/s
same,speed of sound,"298.1 K, 101320 kPa, x2 = 0.3008",1616 ± 1.3 m/s
same,speed of sound,"298.11 K, 75990 kPa, x2 = 0",1531.6 ± 1.3 m/s
same,speed of sound,"298.13 K, 100 kPa, x2 = 0.4992",1137 ± 1.1 m/s
same,speed of sound,"298.13 K, 101320 kPa, x2 = 0.4992",1614.4 ± 1.2 m/s
same,speed of sound,"298.13 K, 111450 kPa, x2 = 0",1660.5 ± 1.5 m/s
same,speed of sound,"298.13 K, 111450 kPa, x2 = 0.6027",1647.1 ± 1.2 m/s
same,speed of sound,"298.13 K, 111450 kPa, x2 = 0.7986",1649.2 ± 1.2 m/s
same,speed of sound,"298.14 K, 91190 kPa, x2 = 0.4992",1579.3 ± 1.2 m/s
same,speed of sound,"298.14 K, 111450 kPa, x2 = 0.3008",1650.1 ± 1.3 m/s
same,speed of sound,"298.14 K, 121580 kPa, x2 = 0",1692.4 ± 1.4 m/s
same,speed of sound,"298.14 K, 121580 kPa, x2 = 0.1008",1688.8 ± 1.3 m/s
same,speed of sound,"298.14 K, 121580 kPa, x2 = 0.4992",1679.9 ± 1.3 m/s
same,speed of sound,"298.15 K, 100 kPa, x2 = 0.1008",1125.7 ± 1.1 m/s
same,speed of sound,"298.15 K, 30400 kPa, x2 = 0.4992",1323.2 ± 1.1 m/s
same,speed of sound,"298.15 K, 30400 kPa, x2 = 0.7986",1339.6 ± 1.1 m/s
same,speed of sound,"298.15 K, 60790 kPa, x2 = 0.4992",1462.7 ± 1.2 m/s
same,speed of sound,"298.15 K, 75990 kPa, x2 = 0.4992",1523.3 ± 1.2 m/s
same,speed of sound,"298.15 K, 91190 kPa, x2 = 0",1589.4 ± 1.3 m/s
same,speed of sound,"298.15 K, 101320 kPa, x2 = 0.6027",1613.9 ± 1.2 m/s
same,speed of sound,"298.15 K, 111450 kPa, x2 = 0.4992",1647.9 ± 1.3 m/s
same,speed of sound,"298.15 K, 121580 kPa, x2 = 0.3008",1682.7 ± 1.3 m/s
same,speed of sound,"298.16 K, 100 kPa, x2 = 0",1129.9 ± 1.1 m/s
same,speed of sound,"298.16 K, 45590 kPa, x2 = 0.1008",1395.7 ± 1.2 m/s
same,speed of sound,"298.16 K, 45590 kPa, x2 = 0.4992",1396.7 ± 1.1 m/s
same,speed of sound,"298.16 K, 45590 kPa, x2 = 0.7986",1408.9 ± 1.1 m/s
same,speed of sound,"298.16 K, 101320 kPa, x2 = 0",1625.7 ± 1.3 m/s
same,speed of sound,"298.16 K, 101320 kPa, x2 = 0.1008",1620.6 ± 1.3 m/s
same,speed of sound,"298.16 K, 111450 kPa, x2 = 0",1660.4 ± 1.5 m/s
same,speed of sound,"298.17 K, 100 kPa, x2 = 0.7986",1166.7 ± 1 m/s
same,speed of sound,"298.17 K, 15200 kPa, x2 = 0.1008",1232.9 ± 1.1 m/s
same,speed of sound,"298.17 K, 30400 kPa, x2 = 0.1008",1319.5 ± 1.1 m/s
